Among the data in the supplement of paper PMC12137928 are IC50 cell viability values, retold here.

Where a name gives a salt, the structure may show the parent alone.

For this test, the system named is HCT116. The settings on record: 72 h. The method in brief:
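After seeding at 250 cells per well in 1536-well plates, HCT116 cells were given 5 h to attach. CellTiter-Glo luminescence, scaled to 0% for vehicle and -100% for positive control, was pattern-corrected. Fitting with a four-parameter Hill model produced IC50 and maximal efficacy.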

For the compound `CCC[C@@H]1CC(=O)N([C@@H](CC)C(N)=O)C1` [Brivaracetam], the IC50 cell viability is, setting by setting: (ICRF193 0 nM) more than 45.8 µM; (ICRF193 200 nM) more than 45.8 µM.

In the case of `CCCCCCCCCCCCSCCOCCOCCOCCOCCOCCOCCOCCOCCOCCO` [Laureth 10s], the IC50 cell viability reads like this: (ICRF193 0 nM) more than 45.8 µM; (ICRF193 200 nM) more than 45.8 µM.

Consider `CNC(=O)C[C@@H](N)C(=O)N[C@@H](C(=O)N[C@@H]1C(=O)N2[C@@H]1SC(C)(C)[C@@H]2C(=O)O)c1ccc(O)cc1` [Aspoxicillin], for which the IC50 cell viability (ICRF193 0 nM) is more than 45.8 µM and the IC50 cell viability (ICRF193 200 nM) is more than 45.8 µM.

The compound `Nc1c(CC(=O)O)cccc1C(=O)c1ccc(Br)cc1` [Bromfenac sodium sesquihydrate] gave an IC50 cell viability (ICRF193 0 nM) of more than 45.8 µM and an IC50 cell viability (ICRF193 200 nM) of more than 45.8 µM.

Turning to `O=c1[nH]cnc2c1ncn2[C@H]1CC[C@@H](CO)O1` [2',3'-Dideoxyinosine], the IC50 cell viability (ICRF193 0 nM) was more than 45.8 µM and the IC50 cell viability (ICRF193 200 nM) was more than 45.8 µM.

As for `CC(C)Cc1ccc(C(C)C(=O)O)cc1` (centres undefined) [Ibuprofen lysine], the IC50 cell viability is more than 45.8 µM (ICRF193 0 nM) and more than 45.8 µM (ICRF193 200 nM).

For `CC(CC=O)CCCC(C)(C)O` (centres undefined) [Hydroxycitronellal], the IC50 cell viability is more than 45.8 µM (ICRF193 0 nM) and more than 45.8 µM (ICRF193 200 nM).

In the case of `COc1cccc(N2CCN(C3=Nc4c(F)cccc4[C@H](CC(=O)O)N3c3cc(C(F)(F)F)ccc3OC)CC2)c1` [Letermovir], the IC50 cell viability by setting is: (ICRF193 0 nM) more than 45.8 µM; (ICRF193 200 nM) more than 45.8 µM.

Regarding `FC(F)(F)C(Cl)Br` (centres undefined) [HALOTHANE], the IC50 cell viability is more than 45.8 µM (ICRF193 0 nM) and more than 45.8 µM (ICRF193 200 nM).

As for `COc1ccc(C(=O)CC(=O)c2ccc(C(C)(C)C)cc2)cc1` [Avobenzone], the IC50 cell viability reads like this: (ICRF193 0 nM) more than 45.8 µM; (ICRF193 200 nM) more than 45.8 µM.

As to `C[N+](C)(C)CCCCCC[N+](C)(C)C` [N,N,N,N',N',N'-Hexamethylhexane-1,6-diaminium], the IC50 cell viability was more than 45.8 µM (ICRF193 0 nM) and more than 45.8 µM (ICRF193 200 nM).

For `O=C(O)[C@H](O)c1ccccc1` [D-(-)-Mandelic acid], the IC50 cell viability (ICRF193 0 nM) is more than 45.8 µM and the IC50 cell viability (ICRF193 200 nM) was more than 45.8 µM.

`CCCCCCCCCCOc1cc2c(O)c(C(=O)OCC)cnc2cc1OCC` [Decoquinate]: the IC50 cell viability is, setting by setting: (ICRF193 0 nM) more than 45.8 µM; (ICRF193 200 nM) more than 45.8 µM.

On to `CNNCc1ccc(C(=O)NC(C)C)cc1` [Procarbazine hydrochloride], for which the IC50 cell viability reads like this: (ICRF193 0 nM) more than 45.8 µM; (ICRF193 200 nM) more than 45.8 µM.

Take `C[C@@H]1NC(=O)[C@@H](N)CNC(=O)[C@H]([C@H]2CCNC(N)=N2)NC(=O)/C(=C/NC(N)=O)NC(=O)[C@H](CNC(=O)C[C@@H](N)CCCN)NC1=O` [Capreomycin IB]: the IC50 cell viability is, setting by setting: (ICRF193 0 nM) more than 45.8 µM; (ICRF193 200 nM) more than 45.8 µM.

Consider `CC(=O)O[C@H]1C[C@@H]2CC[C@@H]3[C@H](CC[C@@]4(C)[C@H]3C[C@H]([N+]3(C)CCCCC3)[C@@H]4OC(C)=O)[C@@]2(C)C[C@@H]1N1CCCCC1` [Vecuronium bromide], for which the IC50 cell viability is more than 45.8 µM (ICRF193 0 nM) and more than 45.8 µM (ICRF193 200 nM).

Take `CCN(CC)CCOC(=O)C1(C2CCCCC2)CCCCC1` [Dicyclomine]: the IC50 cell viability reads like this: (ICRF193 0 nM) more than 45.8 µM; (ICRF193 200 nM) more than 45.8 µM.

With `CCCCCCCCCCCCCCCC(=O)O[C@@H]1[C@@H](O)[C@@H](O)[C@@H]([C@H](NC(=O)[C@@H]2C[C@@H](CCC)CN2C)[C@H](C)Cl)O[C@@H]1SC` [Clindamycin palmitate HCl], the IC50 cell viability runs as follows: (ICRF193 0 nM) more than 45.8 µM; (ICRF193 200 nM) more than 45.8 µM.

As for `CC(C)(C)NC(=O)N[C@H](C(=O)N1C[C@H]2[C@@H]([C@H]1C(=O)NC(CC1CCC1)C(=O)C(N)=O)C2(C)C)C(C)(C)C` (some centres undefined) [Boceprevir], the IC50 cell viability is more than 45.8 µM (ICRF193 0 nM) and more than 45.8 µM (ICRF193 200 nM).

Take `CC1CCc2c(N3CCC(O)CC3)c(F)cc3c(=O)c(C(=O)O)cn1c23` (centres undefined) [Nadifloxacin]: the IC50 cell viability was more than 45.8 µM (ICRF193 0 nM) and more than 45.8 µM (ICRF193 200 nM).

On to `C[C@H]1O[C@@H](n2cc(F)c(=O)[nH]c2=O)[C@H](O)[C@@H]1O` [Doxifluridine], for which the IC50 cell viability is more than 45.8 µM (ICRF193 0 nM) and more than 45.8 µM (ICRF193 200 nM).

On to `C[N+]1(C)CCC(=C(c2ccccc2)c2ccccc2)CC1` [Diphemanil methylsulfate], for which the IC50 cell viability by setting is: (ICRF193 0 nM) more than 45.8 µM; (ICRF193 200 nM) more than 45.8 µM.

As for `Oc1ccccc1` [Phenol], the IC50 cell viability by setting is: (ICRF193 0 nM) more than 45.8 µM; (ICRF193 200 nM) more than 45.8 µM.

On to `CCN(CC)CCS(=O)(=O)[C@@H]1CCN2C(=O)c3coc(n3)CC(=O)C[C@H](O)/C=C(C)/C=C/CNC(=O)/C=C/[C@@H](C)[C@@H](C(C)C)OC(=O)[C@@H]12` [Dalfopristin], for which the IC50 cell viability is more than 45.8 µM (ICRF193 0 nM) and more than 45.8 µM (ICRF193 200 nM).

Take `C[C@H](N[C@@H](CCc1ccccc1)C(=O)O)C(=O)N1CCC[C@H]1C(=O)O` [Enalapril acid]: the IC50 cell viability (ICRF193 0 nM) is more than 45.8 µM and the IC50 cell viability (ICRF193 200 nM) is more than 45.8 µM.

On to `OC[C@H]1O[C@@H](OCCc2ccc(O)cc2)[C@H](O)[C@@H](O)[C@@H]1O` [Salidroside], for which the IC50 cell viability is more than 45.8 µM (ICRF193 0 nM) and more than 45.8 µM (ICRF193 200 nM).

Compound `O=C1CCCC(=O)C1C(=O)c1ccc(C(F)(F)F)cc1[N+](=O)[O-]` [Nitisinone] had an IC50 cell viability (ICRF193 0 nM) of more than 45.8 µM and an IC50 cell viability (ICRF193 200 nM) of more than 45.8 µM.
